According to BindingDB's records for patent US10774052 (Celgene CAR LLC; Sanofi, 2020):

Biological target: Fibroblast growth factor receptor 4 (Homo sapiens, UniProt P22455)
Assay: Omnia Assay Protocol for Potency Assessment Against (method a)
Method: A solution of 1.4×ATP (AS001A) and 5× Tyr-Sox conjugated peptide substrate (KNZ3101) were prepared in 1× kinase reaction buffer consisting of 20 mM Tris, pH 7.5, 5 mM MgCl2, 1 mM EGTA, 5 mM β-glycerophosphate, 5% glycerol (10× stock, KB002A) and 0.2 mM DTT (DS001A). […] The serially diluted compounds were prepared on a Tecan EV0100. A second addition of 10 μl of Tyr-Sox FGFR4 substrate was added to each well and the kinase reactions were started with the addition of 35 μL of 1.4×ATP. The reactions were monitored every 71 seconds for 240 minutes at λex360/λem485 in a Synergy plate reader from BioTek (Winooski, Vt.).

Chain of Fibroblast growth factor receptor 4 (P22455 whole entry): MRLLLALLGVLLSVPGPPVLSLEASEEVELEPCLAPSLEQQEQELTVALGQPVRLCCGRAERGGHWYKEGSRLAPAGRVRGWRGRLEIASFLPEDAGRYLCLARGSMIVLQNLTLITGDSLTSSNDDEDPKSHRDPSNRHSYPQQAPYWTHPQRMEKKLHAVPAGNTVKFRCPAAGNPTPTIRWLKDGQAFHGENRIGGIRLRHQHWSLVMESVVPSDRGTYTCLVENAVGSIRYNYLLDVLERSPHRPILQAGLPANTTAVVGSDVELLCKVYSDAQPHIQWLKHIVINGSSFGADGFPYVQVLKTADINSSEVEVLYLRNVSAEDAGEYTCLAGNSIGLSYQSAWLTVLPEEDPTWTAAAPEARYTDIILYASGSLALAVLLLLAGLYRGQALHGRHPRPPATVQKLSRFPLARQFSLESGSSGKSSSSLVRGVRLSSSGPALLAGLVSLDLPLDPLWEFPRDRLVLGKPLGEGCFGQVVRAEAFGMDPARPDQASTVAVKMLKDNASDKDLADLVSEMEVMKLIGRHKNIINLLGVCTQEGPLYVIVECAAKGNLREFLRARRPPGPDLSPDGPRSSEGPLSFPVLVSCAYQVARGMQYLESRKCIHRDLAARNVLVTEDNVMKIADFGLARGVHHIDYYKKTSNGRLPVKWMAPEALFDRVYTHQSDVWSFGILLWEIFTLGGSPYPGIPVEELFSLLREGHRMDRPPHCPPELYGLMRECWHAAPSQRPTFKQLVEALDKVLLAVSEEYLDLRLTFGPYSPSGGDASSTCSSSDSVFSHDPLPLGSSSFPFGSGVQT

SMILES: C=CC(=O)Nc1cc(C2=CCN(CC)CC2)ccc1Nc1ncc2c(n1)N(CC)C(=O)N(c1cc(OC)cc(OC)c1)C2 [US10774052, Compound I-56]
- IC50: < 100 nM
